Experimental findings from patent publication US11629146B2, “Substituted [1,2,4]triazolo[4,3-a]pyrazines as modulators of sodium channel activity” (Praxis Precision Medicines, Inc., priority 2016, dated 2023) are described below.

Where two headings read alike, the source gives them in different places.

This experiment deals with human NaV1.6 (hNaV1.6) (Homo sapiens (Human), UniProt Q9UQD0). As to the kind of experiment: INaL inhibition at hNaV1.6, PatchXpress electrophysiology. It is filed as cell-based. As to the method:
Functional characterization of exemplary compounds to modulate INaL expressed by the Nay 1.6 voltage-gated sodium channel was accomplished using the PatchXpress™ high throughput electrophysiology platform (Molecular Devices, Sunnyvale, Calif.). HEK-293 cells expressing recombinant, human NaV1.6 (hNaV1.6) were grown in DMEM/high-glucose Dulbecco's modified, 10% FBS, 2 mM sodium pyruvate, 10 mM HEPES and 400 μg/mL G418. Cells were grown to 50%-80% confluency prior to harvesting. […] The onboard liquid handling facility of the PatchXpress was used for dispensing cells and applying test compounds. Nay late currents were evoked by the application of 300 nM ATX-II. […] INaL amplitude and stability were determined by analyzing the mean current amplitude over the final 20 ms of the test pulse. […] Percent steady-state inhibition of INaL was calculated as: [(INaL_compound)/(INaL_control)]*100, where INaL_compound and INaL_control represent INaL recorded in the presence or absence of compound, respectively.

[1] abbreviates: HEK293, read-out: INaL v1.6 (1 μM, % Inhibition).
The mark [2] stands for this setting: HEK293, 1 μM, HEK-293 cells expressing hNaV1.6, late current evoked by 300 nM ATX-II, read-out: INaL v1.6 (1 μM, % Inhibition).
Where [3] appears, read: 1 μM, HEK-293 cells expressing hNaV1.6, late current evoked by 300 nM ATX-II.

Sequence of human NaV1.6 (hNaV1.6) (Q9UQD0 whole entry): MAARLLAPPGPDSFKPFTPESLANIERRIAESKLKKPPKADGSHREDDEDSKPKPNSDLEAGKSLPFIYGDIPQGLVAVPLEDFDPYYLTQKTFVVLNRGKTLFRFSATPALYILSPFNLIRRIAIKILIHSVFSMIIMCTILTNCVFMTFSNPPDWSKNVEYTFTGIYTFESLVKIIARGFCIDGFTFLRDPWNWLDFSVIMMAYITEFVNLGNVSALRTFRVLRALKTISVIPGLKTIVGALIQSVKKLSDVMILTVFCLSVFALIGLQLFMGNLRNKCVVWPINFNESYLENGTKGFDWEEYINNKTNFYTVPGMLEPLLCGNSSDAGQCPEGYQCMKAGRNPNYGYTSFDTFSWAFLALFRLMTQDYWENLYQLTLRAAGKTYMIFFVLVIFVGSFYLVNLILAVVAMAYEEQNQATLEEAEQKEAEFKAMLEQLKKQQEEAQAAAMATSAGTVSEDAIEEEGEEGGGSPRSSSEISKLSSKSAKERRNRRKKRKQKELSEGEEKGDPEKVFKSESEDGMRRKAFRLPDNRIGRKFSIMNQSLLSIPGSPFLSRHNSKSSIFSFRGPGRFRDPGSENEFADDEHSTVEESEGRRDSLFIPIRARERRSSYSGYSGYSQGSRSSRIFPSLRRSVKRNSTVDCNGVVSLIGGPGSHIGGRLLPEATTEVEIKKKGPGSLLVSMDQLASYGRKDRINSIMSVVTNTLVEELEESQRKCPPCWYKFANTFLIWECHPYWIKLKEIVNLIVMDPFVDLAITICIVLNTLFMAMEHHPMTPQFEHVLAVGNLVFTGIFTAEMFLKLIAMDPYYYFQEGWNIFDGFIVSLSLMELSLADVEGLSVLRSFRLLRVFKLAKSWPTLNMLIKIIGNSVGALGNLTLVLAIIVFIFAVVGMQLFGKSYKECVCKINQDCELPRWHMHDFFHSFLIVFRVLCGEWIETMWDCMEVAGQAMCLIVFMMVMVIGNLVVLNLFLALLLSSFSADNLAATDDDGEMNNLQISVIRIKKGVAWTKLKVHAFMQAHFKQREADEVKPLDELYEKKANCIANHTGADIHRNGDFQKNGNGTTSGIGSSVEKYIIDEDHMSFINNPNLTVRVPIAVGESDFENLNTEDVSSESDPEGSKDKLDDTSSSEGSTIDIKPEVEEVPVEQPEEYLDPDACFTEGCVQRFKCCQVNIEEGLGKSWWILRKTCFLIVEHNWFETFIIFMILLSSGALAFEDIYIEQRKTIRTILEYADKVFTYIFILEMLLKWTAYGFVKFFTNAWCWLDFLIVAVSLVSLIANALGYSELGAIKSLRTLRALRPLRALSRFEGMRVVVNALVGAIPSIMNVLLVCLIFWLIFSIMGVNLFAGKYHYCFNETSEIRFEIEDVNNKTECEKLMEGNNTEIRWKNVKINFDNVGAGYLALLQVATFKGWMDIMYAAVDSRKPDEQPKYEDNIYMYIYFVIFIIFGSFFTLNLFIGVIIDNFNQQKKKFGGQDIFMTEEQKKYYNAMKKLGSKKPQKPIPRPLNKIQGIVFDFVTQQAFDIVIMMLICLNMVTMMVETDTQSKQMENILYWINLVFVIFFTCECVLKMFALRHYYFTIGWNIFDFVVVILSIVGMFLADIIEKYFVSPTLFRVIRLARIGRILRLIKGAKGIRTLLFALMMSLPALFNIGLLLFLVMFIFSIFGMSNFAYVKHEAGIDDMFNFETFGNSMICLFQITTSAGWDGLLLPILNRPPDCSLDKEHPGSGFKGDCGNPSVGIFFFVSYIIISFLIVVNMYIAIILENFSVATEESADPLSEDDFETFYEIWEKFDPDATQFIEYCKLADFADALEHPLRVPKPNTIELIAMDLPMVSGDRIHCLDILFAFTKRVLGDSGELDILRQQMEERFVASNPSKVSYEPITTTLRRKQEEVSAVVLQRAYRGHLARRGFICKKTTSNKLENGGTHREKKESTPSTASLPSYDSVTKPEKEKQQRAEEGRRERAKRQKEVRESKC

One may read the inhibition as the change of the read-out against control, counted positive when it falls. As for `N#CC1(c2ccc(-c3ccc4nnc(C(F)(F)F)n4n3)cc2)CCC1` [Compound 60], the inhibition at 1 µM under setting [1] lay in the range of 30 to 70%.

On to `COCc1cc(-c2ccc3nnc(C(F)F)n3n2)ccc1C(F)(F)F` [Compound 159], for which the inhibition at 1 µM under setting [2] was 30 to 70%.

Consider `COCc1cc(C(F)(F)F)ccc1-c1cn2c(C(F)F)nnc2cn1` [Compound 141], for which the inhibition at 1 µM under setting [2] lay within 30 to 70%.

On to `FC(F)(F)Oc1ccc(Cl)c(-c2ccc3nnc(C(F)(F)F)n3n2)c1` [Compound 35], for which the inhibition at 1 µM under setting [2] is < 30%.

Take `Cc1nnc2cnc(-c3ccc(OC(F)(F)F)cc3)cn12` [Compound 95]: the inhibition at 1 µM under setting [1] was < 30%.

`FC(F)(F)Oc1ccc(-c2ccc3nnc(C4CC4(F)F)n3n2)cc1` (single isomer, unassigned) [Compound 46]: under setting [3], the “INaL v1.6 (1 μM, % Inhibition)” value is recorded as “C (inhibition of greater than 70%)”.

Take `FC(F)(F)Oc1ccc(-c2cn3c(C4CCOCC4)nnc3cn2)cc1` [Compound 145]: the inhibition at 1 µM under setting [1] was < 30%.

For the compound `FC(F)c1nnc2ccc(-c3ccc([C@@H]4CC4(F)F)cc3)nn12` [Compound 165, 6-[4-[(1S)-2,2-difluorocyclopropyl]phenyl]-3-(difluoromethyl)-[1,2,4]triazolo[4,3-b]pyridazine], the inhibition at 1 µM under setting [2] was > 70%.

For the compound `FC(F)(F)c1nnc2cnc(-c3ccc([C@@H]4CC4(F)F)cc3)cn12` [Compound 152, 6-[4-[(1S)-2,2-difluorocyclopropyl]phenyl]-3-(trifluoromethyl)-[1,2,4]triazolo[4,3-a]pyrazine], under setting [2], the inhibition at 1 µM was > 70%.

Regarding `COCc1cc2nnc(C(F)(F)F)n2nc1-c1ccc(OC(F)(F)F)cc1` [Compound 143], under setting [2], the inhibition at 1 µM is < 30%.

For `FC(F)(F)Oc1ccc(-c2cn3c([C@H]4CCOC4)nnc3cn2)cc1` [Compound 160, 3-[(3R)-tetrahydrofuran-3-yl]-6-[4-(trifluoromethoxy)phenyl]-[1,2,4]triazolo[4,3-a]pyrazine], under setting [2], the inhibition at 1 µM is < 30%.

On to `C[C@@H](Oc1ccc(-c2ccc3nnc(C(F)(F)F)n3n2)cn1)C(F)(F)F` [Compound 199, 3-(trifluoromethyl)-6-[6-[(1R)-2,2,2-trifluoro-1-methyl-ethoxy]-3-pyridyl]-[1,2,4]triazolo[4,3-b]pyridazine], for which the inhibition at 1 µM under setting [2] is > 70%.

With `COc1cc(OC(F)(F)F)ccc1-c1ccc2nnc(C(F)(F)OCC3CC3)n2n1` [Compound 34], the inhibition at 1 µM under setting [2] is > 70%.

For `FC(F)(F)Oc1ccc(-c2ccc3nnc(C(F)(F)F)n3n2)c(C2COC2)c1` [Compound 32], under setting [2], the inhibition at 1 µM was in the range of 30 to 70%.

As for `FC(F)(F)COc1ccc(-c2cn3c(C(F)(F)F)nnc3cn2)cn1` [Compound 179], under setting [2], the inhibition at 1 µM lay in the range of 30 to 70%.

For the compound `Nc1cc2nnc(C(F)(F)F)n2nc1-c1ccc(OC(F)(F)F)cc1` [Compound 190, 6-[4-(trifluoromethoxy)phenyl]-3-(trifluoromethyl)-[1,2,4]triazolo[4,3-b]pyridazin-7-amine], the inhibition at 1 µM under setting [2] was < 30%.

For the compound `Fc1cc(-c2ccc3nnc(C4CC4)n3n2)cnc1OCC(F)(F)F` [Compound 103], the inhibition at 1 µM under setting [2] is 30 to 70%.

Consider `FC(F)(F)Oc1ccc(-c2cnc3nncn3c2)cc1` [Compound 55], for which the inhibition at 1 µM under setting [2] is < 30%.

Consider `Cc1cc2nnc(C(F)(F)F)n2nc1-c1ccc(OC(F)(F)F)cc1` [Compound 140, 7-methyl-6-[4-(trifluoromethoxy)phenyl]-3-(trifluoromethyl)-[1,2,4]triazolo[4,3-b]pyridazine], for which, under setting [2], the inhibition at 1 µM is 30 to 70%.

For the compound `FC(F)c1nnc2cnc(-c3ccc(OCC(F)(F)F)nc3)cn12` [Compound 50], the inhibition at 1 µM under setting [2] was 30 to 70%.

As for `CC(C)OCc1ccc(-c2cn3c(C(F)(F)F)nnc3cn2)cc1` [Compound 195], the inhibition at 1 µM under setting [2] was < 30%.

For the compound `COc1cc(OC(F)(F)F)ccc1-c1cn2c(C(F)F)nnc2cn1` [Compound 48], under setting [2], the inhibition at 1 µM is < 30%.

In the case of `COc1nnc2cnc(-c3ccc(OC(F)(F)F)cc3)cn12` [Compound 148], the inhibition at 1 µM under setting [2] was < 30%.

Take `COCc1cc(-c2ccc3nnc(C(F)(F)F)n3n2)ccc1C(F)(F)F` [Compound 158]: the inhibition at 1 µM under setting [2] is 30 to 70%.

As for `CC(Oc1ncc(-c2ccc3nnc(C(F)(F)F)n3n2)cc1F)C(F)(F)F` (stereo not shown) [Compound 128], under setting [2], the inhibition at 1 µM was > 70%.

In the case of `Cc1nc(-c2ccc(OC(F)(F)F)cc2)cn2c(C(F)(F)F)nnc12` [Compound 168, 8-methyl-6-[4-(trifluoromethoxy)phenyl]-3-(trifluoromethyl)-[1.2.4]triazolo[4,3-a]pyrazine], the inhibition at 1 µM under setting [2] lay in the range of 30 to 70%.

On to `Fc1cc(-c2ccc3nnc(C(F)(F)F)n3n2)cnc1C(F)(F)F` [Compound 99], for which the inhibition at 1 µM under setting [2] is < 30%.

Consider `Fc1cc(-c2ccc3nnc(C(F)(F)F)n3n2)cnc1OC1CC(F)(F)C1` [Compound 93], for which, under setting [2], the inhibition at 1 µM is > 70%.

For the compound `FC(F)(F)Oc1ccc(-c2cn3c(C[C@@H]4CCCOC4)nnc3cn2)cc1` (single isomer, unassigned) [Compound 155], the inhibition at 1 µM under setting [2] is < 30%.

As to `Cc1cc(OC2CC(F)(F)C2)ccc1-c1cn2c(C(F)(F)F)nnc2cn1` [Compound 174], the inhibition at 1 µM under setting [2] was in the range of 30 to 70%.

For the compound `N#Cc1ccc(OC(F)(F)F)cc1-c1ccc2nnc(C(F)(F)F)n2n1` [Compound 40], the inhibition at 1 µM under setting [2] was < 30%.

For `FC(F)c1nnc2cnc(-c3ccc([C@H]4CC4(F)F)cc3)cn12` [Compound 166, 6-[4-[(1R)-2,2-difluorocyclopropyl]phenyl]-3-(difluoromethyl)-[1,2,4]triazolo[4,3-a]pyrazine], the inhibition at 1 µM under setting [2] is 30 to 70%.

In the case of `FC(F)(F)Oc1ccc(-c2cn3c(C(F)(F)F)nnc3cn2)cc1` [Compound 56], the inhibition at 1 µM under setting [2] is > 70%.

Turning to `COCc1cc(-c2ccc(OC(F)(F)F)cc2)nn2c(C(F)(F)F)nnc12` [Compound 163], the inhibition at 1 µM under setting [2] was < 30%.

As to `CC(C)(C#N)c1ccc(-c2cn3c(C(F)F)nnc3cn2)cc1` [Compound 57], the inhibition at 1 µM under setting [1] is < 30%.

In the case of `FC(F)(F)Oc1ccc(-c2ccc3nnc(CC4CCOCC4)n3n2)cc1` [Compound 39], the inhibition at 1 µM under setting [1] is < 30%.

`FC(F)(F)OCc1ccc(-c2ccc3nnc(C(F)(F)F)n3n2)cc1` [Compound 118]: under setting [2], the inhibition at 1 µM is > 70%.

As to `OCc1ccc(-c2cn3c(C(F)(F)F)nnc3cn2)cc1` [Compound 196, [4-[3-(trifluoromethyl)-[1,2,4]triazolo[4,3-a]pyrazin-6-yl]phenyl]methanol], the inhibition at 1 µM under setting [2] is < 30%.

Take `COC(F)(F)c1nnc2ccc(-c3ccc(C(F)(F)F)cc3C)nn12` [Compound 111]: the inhibition at 1 µM under setting [2] was > 70%.

As for `COc1cc(C(F)(F)F)ccc1-c1ccc2nnc(C(F)(F)F)n2n1` [Compound 89], under setting [2], the inhibition at 1 µM is > 70%.

With `OCc1ccc(-c2ccc3nnc(C(F)F)n3n2)cc1` [Compound 169, [4-[3-(difluoromethyl)-[1,2,4]triazolo[4,3-b]pyridazin-6-yl]phenyl]methanol], under setting [2], the inhibition at 1 µM was < 30%.

As for `Fc1cc(-c2ccc3nnc(C(F)(F)F)n3n2)ccc1OC1CC(F)(F)C1` [Compound 100], the inhibition at 1 µM under setting [2] is 30 to 70%.

For `Fc1ccc(Oc2nnc3cnc(-c4cnc(OCC(F)(F)F)c(F)c4)cn23)cc1` [Compound 188], the inhibition at 1 µM under setting [2] lay within 30 to 70%.

Turning to `FC(F)(F)Oc1ccc(-c2ccc3nnc(CC4CCCOC4)n3n2)cc1` (stereo not shown) [Compound 38], the inhibition at 1 µM under setting [1] was in the range of 30 to 70%.

Regarding `FC(F)Oc1ccc(-c2cn3c(C(F)F)nnc3cn2)cc1` [Compound 138], the inhibition at 1 µM under setting [2] is < 30%.

For `FC(F)(F)Oc1ccc(-c2cn3c([C@@H]4CCOC4)nnc3cn2)cc1` [Compound 161, 3-[(3S)-tetrahydrofuran-3-yl]-6-[4-(trifluoromethoxy)phenyl]-[1,2,4]triazolo[4,3-a]pyrazine], under setting [2], the inhibition at 1 µM was < 30%.

As to `O=C(Cc1nnc2cnc(-c3ccc(OC(F)(F)F)cc3)cn12)N1CCCC1` [Compound 114], the inhibition at 1 µM under setting [2] is 30 to 70%.

As for `FC(F)(F)Oc1ccc(-c2cn3c(C[C@H]4CCCOC4)nnc3cn2)cc1` (single isomer, unassigned) [Compound 154], the inhibition at 1 µM under setting [2] was < 30%.

As to `Fc1cc(-c2ccc3nnc(C(F)F)n3n2)cnc1OCC(F)(F)F` [Compound 85], the inhibition at 1 µM under setting [2] is < 30%.

Turning to `COCc1ccc(-c2cn3c(C(F)F)nnc3cn2)cc1` [Compound 170], the inhibition at 1 µM under setting [2] is < 30%.

`C[C@H](Oc1ccc(-c2ccc3nnc(C(F)(F)F)n3n2)cn1)C(F)(F)F` [Compound 200, 3-(trifluoromethyl)-6-[6-[(1S)-2,2,2-trifluoro-1-methyl-ethoxy]-3-pyridyl]-[1,2,4]triazolo[4,3-b]pyridazine]: the inhibition at 1 µM under setting [2] is > 70%.

On to `Fc1ccc(-c2nnc3cnc(-c4cnc(OCC(F)(F)F)c(F)c4)cn23)cc1` [Compound 175], for which, under setting [2], the inhibition at 1 µM is > 70%.

On to `COCc1cc(OC(F)(F)F)ccc1-c1cn2c(C(F)(F)F)nnc2cn1` [Compound 66], for which the “INaL v1.6 (1 μM, % Inhibition)” value under setting [3] is listed as “C (inhibition of greater than 70%)”.

On to `OCc1ccc(-c2cn3c(C(F)F)nnc3cn2)cc1` [Compound 172, [4-[3-(difluoromethyl)-[1,2,4]triazolo[4,3-a]pyrazin-6-yl]phenyl]methanol], for which, under setting [2], the inhibition at 1 µM is < 30%.

For `FC(F)OCc1cc(OC(F)(F)F)ccc1-c1ccc2nnc(C(F)(F)F)n2n1` [Compound 101], the inhibition at 1 µM under setting [2] was in the range of 30 to 70%.
